Reference: paper PMC10683025, “Discovery of a Hydroxylamine-Based Brain-Penetrant EGFR Inhibitor for Metastatic Non-Small-Cell Lung Cancer” (Journal of Medicinal Chemistry, 2023)
Read-outs that look alike come from different tables or passages of the source.

Assays:
[1] = tested on: TA1535; design: species or system Salmonella
[2] = tested on: TA100; design: species or system Salmonella;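 as to Count (# of wells): Revertant-positive wells among 48 replicate wells per concentration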
Method: (§1) Compounds were assessed for mutagenicity at the Eurofins Panlabs in 384-well plates using four Salmonella strains: TA98, to probe for frameshift mutation (with quercetin as control), TA100 and TA1535, to probe for base pair insertions/deletions (with streptozotocin as control), and TA1537, to probe for frameshift mutations (with aminacridine as control) as previously described.[78] […] A concurrent bacterial cytotoxicity assay was run at 0.6, 1.2, 2.5, 5, 10, 25, 50, and 100 μM to rule out false negatives. Bacterial cytotoxicity was expressed as percent of control growth (OD650). Compounds with growth of less than 60% control were flagged and considered bacterial cytotoxic. […] Significances of the positive counts between the treatment and control were determined using a one-tailed Fisher’s exact test.

[3] = tested on: TA1537; design: species or system Salmonella;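 as to Count (# of wells): Revertant-positive wells among 48 replicate wells per concentration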
Method: as §1

[4] = tested on: TA98; design: species or system Salmonella;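 as to Count (# of wells): Revertant-positive wells among 48 replicate wells per concentration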
Method: as §1

[5] = tested on: P-gp and BCRP; design: method as in ref 17−20; settings: ref 17−20; cited from earlier work
[6] = tested on: MDR1; assay: MDCKII-MDR1 permeability; format: in vitro ADME, canine; settings: dog, MDCK-MDR1
Method: (§4) A 96-well HTS Transwell plate (Corning) was used for Caco-2 and MDCKII-MDR1 cell seeding. […] Plates were incubated at 37 °C for 2 h, and samples (50 μL) were taken at the beginning and end of the incubation in both the donor and acceptor wells with the assay run in duplicate (n = 2). Samples were analyzed by LC-MS/MS.
(§5) The efflux ratio was determined by using the following equation: [drawing 4] where Papp (B–A) indicates the apparent permeability in the basolateral to apical direction and Papp (A–B) indicates the apparent permeability in the apical to basolateral direction.

[7] = MDCKII-MDR1 permeability; format: in vitro ADME, canine; settings: dog, MDCK-MDR1, MDCKII-MDR1
Method: as §4, §5

[8] = Caco-2 permeability; format: in vitro ADME; settings: human; for efflux ratio at 2 h, 5 μM / Papp A→B at 2 h, 5 μM / Papp B→A at 2 h, 5 μM: Caco-2; for recovery at 2 h, 5 μM: Caco-2, Caco-2
Method: as §4, §5

[9] = Plasma stability; format: in vitro ADME, Sprague-Dawley rat; settings: rat plasma
Method: (§2) Assessment of compounds to determine stability in incubations containing plasma of human (Pharmaron) and Sprague-Dawley rat (IPHASE) was performed by Pharmaron, Inc. using the compound […] approach. Compounds were assessed in duplicate (n = 2) and incubated in plasma at 5 μM and samples (50 μL) were taken at 0, 15, 30, 60, and 120 min time points for analysis by LC-MS/MS. Peak area ratios were determined from the extracted ion chromatogram and the percent compound remaining at each time point was calculated by the following equation: [drawing 2] where peak area ratiot min is the peak area ratio of control and test compound at t min and peak area ratio0 min is the peak area ratio of control and test compound at zero time point.

[10] = Plasma stability; format: in vitro ADME, human; settings: human plasma
Method: as §2

[11] = Brain tissue binding by equilibrium dialysis; format: in vitro ADME; settings: rat
Method: (§3) Plasma protein binding and brain tissue binding were determined by Pharmaron, Inc. using the equilibrium dialysis method. […] Following incubation, the samples were analyzed by LC-MS/MS and the concentrations of the compounds were determined in the buffer and plasma solution chambers.

[12] = Brain tissue binding by equilibrium dialysis; format: in vitro ADME, mouse; settings: CD-1, mouse
Method: as §3

CN(N=O)C(=O)N[C@H]1C(O)O[C@H](CO)[C@@H](O)[C@@H]1O (mixture of isomers) [Streptozotocin, reference compound]
Count (# of wells) ([1]; TA1535+S9, 2.5E-06 M): 48
Count (# of wells) ([1]; TA1535-S9, 2.5E-06 M): 2
Positive Significance (- to +++) ([1]; TA1535-S9, 2.5E-06 M): -
Count (# of wells) ([2]; TA100+S9, 2.5E-06 M): 39
Count (# of wells) ([2]; TA100-S9, 2.5E-06 M): 42
Count (# of wells) ([3]; TA1537+S9, 2.5E-06 M): 7
Positive Significance (- to +++) ([3]; TA1537+S9, 2.5E-06 M): -
Count (# of wells) ([3]; TA1537-S9, 2.5E-06 M): 2
Positive Significance (- to +++) ([3]; TA1537-S9, 2.5E-06 M): -
Count (# of wells) ([4]; TA98+S9, 2.5E-06 M): 2
Positive Significance (- to +++) ([4]; TA98+S9, 2.5E-06 M): -
Count (# of wells) ([4]; TA98-S9, 2.5E-06 M): 1
Positive Significance (- to +++) ([4]; TA98-S9, 2.5E-06 M): -

Nc1ccc2cc3ccccc3cc2c1 [2-Aminoanthracene, reference compound]
Count (# of wells) ([1]; TA1535+S9, 5.0E-06 M): 15
Count (# of wells) ([2]; TA100+S9, 1.0E-06 M): 21
Count (# of wells) ([2]; TA100-S9, 5.0E-06 M): 4
Positive Significance (- to +++) ([2]; TA100-S9, 5.0E-06 M): -
Count (# of wells) ([3]; TA1537+S9, 1.0E-05 M): 14
Positive Significance (- to +++) ([3]; TA1537+S9, 1.0E-05 M): ++ (strong positive, if P < 0.01 (denoted as “++”))
Count (# of wells) ([3]; TA1537-S9, 5.0E-06 M): 1
Positive Significance (- to +++) ([3]; TA1537-S9, 5.0E-06 M): -
Count (# of wells) ([4]; TA98+S9, 2.0E-06 M): 47
Count (# of wells) ([4]; TA98-S9, 5.0E-06 M): 1
Positive Significance (- to +++) ([4]; TA98-S9, 5.0E-06 M): -

Nc1c2ccccc2nc2ccccc12 [9-Aminoacridine, reference compound]
Count (# of wells) ([1]; TA1535+S9, 1.0E-05 M): 0
Positive Significance (- to +++) ([1]; TA1535+S9, 1.0E-05 M): -
Count (# of wells) ([1]; TA1535-S9, 1.0E-05 M): 1
Positive Significance (- to +++) ([1]; TA1535-S9, 1.0E-05 M): -
Count (# of wells) ([2]; TA100+S9, 1.0E-05 M): 3
Positive Significance (- to +++) ([2]; TA100+S9, 1.0E-05 M): -
Count (# of wells) ([2]; TA100-S9, 1.0E-05 M): 2
Positive Significance (- to +++) ([2]; TA100-S9, 1.0E-05 M): -
Count (# of wells) ([3]; TA1537+S9, 1.0E-05 M): 17
Count (# of wells) ([3]; TA1537-S9, 1.0E-05 M): 11
Positive Significance (- to +++) ([3]; TA1537-S9, 1.0E-05 M): ++ (strong positive, if P < 0.01 (denoted as “++”))
Count (# of wells) ([4]; TA98+S9, 1.0E-05 M): 1
Positive Significance (- to +++) ([4]; TA98+S9, 1.0E-05 M): -
Count (# of wells) ([4]; TA98-S9, 1.0E-05 M): 0
Positive Significance (- to +++) ([4]; TA98-S9, 1.0E-05 M): -

CN(C)C/C=C/C(=O)Nc1cc2c(Nc3ccc(F)c(Cl)c3)ncnc2cc1O[C@H]1CCOC1 [Afatinib]
efflux status against common efflux transporters [5]: P-gp and BCRP Substrate

COc1cc2ncnc(Nc3ccc(F)c(Cl)c3)c2cc1NC(=O)/C=C/CN1CCCCC1 [Dacomitinib]
efflux status against common efflux transporters [5]: P-gp and BCRP Substrate

C[C@H]1O[C@@H](O[C@H]2[C@@H](O)C[C@H](O[C@H]3[C@@H](O)C[C@H](O[C@H]4CC[C@@]5(C)[C@H](CC[C@@H]6[C@@H]5C[C@@H](O)[C@]5(C)[C@@H](C7=CC(=O)OC7)CC[C@]65O)C4)O[C@@H]3C)O[C@@H]2C)C[C@H](O)[C@@H]1O [Digoxin, reference compound]
efflux ratio at 2 h, 1 μM [6]: 40.6
Papp A→B at 2 h, 1 μM [6]: 0.25 ×10⁻⁶ cm/s
Papp B→A at 2 h, 1 μM [6]: 10.2 ×10⁻⁶ cm/s
recovery at 2 h, 1 μM ([7]; read-out: Recovery% (AP-BL)): 98.8%
recovery at 2 h, 1 μM ([7]; read-out: Recovery% (BL-AP)): 100%
efflux ratio at 2 h, 5 μM [8]: 50.1
recovery at 2 h, 5 μM ([8]; read-out: Recovery% (AP-BL)): 108%
recovery at 2 h, 5 μM ([8]; read-out: Recovery% (BL-AP)): 96.2%
Papp A→B at 2 h, 5 μM [8]: 0.27 ×10⁻⁶ cm/s
Papp B→A at 2 h, 5 μM [8]: 13.4 ×10⁻⁶ cm/s

C#Cc1cccc(Nc2ncnc3cc(OCCOC)c(OCCOC)cc23)c1 [Erlotinib]
efflux status against common efflux transporters [5]: P-gp and BCRP Substrate

COCCc1ccc(OCC(O)CNC(C)C)cc1 (centres unmarked) [Metoprolol, reference compound]
efflux ratio at 2 h, 1 μM [6]: 0.81
Papp A→B at 2 h, 1 μM [6]: 25.9 ×10⁻⁶ cm/s
Papp B→A at 2 h, 1 μM [6]: 20.9 ×10⁻⁶ cm/s
recovery at 2 h, 1 μM ([7]; read-out: Recovery% (AP-BL)): 105%
recovery at 2 h, 1 μM ([7]; read-out: Recovery% (BL-AP)): 98.4%
efflux ratio at 2 h, 5 μM [8]: 0.89
recovery at 2 h, 5 μM ([8]; read-out: Recovery% (AP-BL)): 97.4%
recovery at 2 h, 5 μM ([8]; read-out: Recovery% (BL-AP)): 98.4%
Papp A→B at 2 h, 5 μM [8]: 24.9 ×10⁻⁶ cm/s
Papp B→A at 2 h, 5 μM [8]: 22.2 ×10⁻⁶ cm/s

CC[C@H](C)C(=O)O[C@H]1C[C@@H](C)C=C2C=C[C@H](C)[C@H](CC[C@@H]3C[C@@H](O)CC(=O)O3)[C@H]21 [Mevinolin, reference compound]
half-life at 5 μM ([9]; Sprague-Dawley, ∞ = no degradation): 2.49 min
Remaining Percentages ([9]; 15 min): 1.54%
Remaining Percentages ([9]; 30 min): 0.42%
Remaining Percentages ([9]; 60 min): 0.30%
Remaining Percentages ([9]; 120 min): 0.27%

C=CC(=O)Nc1cc(Nc2nccc(-c3cn(C)c4ccccc34)n2)c(OC)cc1N(C)CCN(C)C [Osimertinib]
efflux status against common efflux transporters [5]: Moderate P-gp and BCRP Substrate

CC(C)[N+](C)(CCOC(=O)C1c2ccccc2Oc2ccccc21)C(C)C [Propantheline, reference compound]
Remaining Percentages ([10]; 15 min): 69.10%
Remaining Percentages ([10]; 30 min): 48.79%
Remaining Percentages ([10]; 60 min): 22.07%
Remaining Percentages ([10]; 120 min): 4.85%
half-life at 5 μM ([10]; ∞ = no degradation): 27.6 min

O=c1c(O)c(-c2ccc(O)c(O)c2)oc2cc(O)cc(O)c12 [Quercetin, reference compound]
Count (# of wells) ([1]; TA1535+S9, 1.0E-05 M): 4
Positive Significance (- to +++) ([1]; TA1535+S9, 1.0E-05 M): -
Count (# of wells) ([2]; TA100+S9, 1.0E-05 M): 5
Positive Significance (- to +++) ([2]; TA100+S9, 1.0E-05 M): -
Count (# of wells) ([2]; TA100-S9, 1.0E-05 M): 1
Count (# of wells) ([3]; TA1537+S9, 3.0E-05 M): 6
Positive Significance (- to +++) ([3]; TA1537+S9, 3.0E-05 M): -
Count (# of wells) ([3]; TA1537-S9, 1.0E-05 M): 1
Positive Significance (- to +++) ([3]; TA1537-S9, 1.0E-05 M): -
Count (# of wells) ([4]; TA98+S9, 1.0E-05 M): 30
Count (# of wells) ([4]; TA98-S9, 1.0E-05 M): 12

CCCc1nc2c(C)cc(-c3nc4ccccc4n3C)cc2n1Cc1ccc(-c2ccccc2C(=O)O)cc1 [Telmisartan, reference compound]
recovery at 6 h, 5 μM ([11]; Sprague-Dawley (SD), rat brain homogenate): 107%
fraction unbound at 6 h, 5 μM ([11]; Sprague-Dawley, brain homogenate, read-out: fu,brain% / %Unboundbrain): 0.0146
remaining at 6 h, 5 μM ([11]; Sprague-Dawley, rat brain homogenate): 100%
fraction unbound at 6 h, 5 μM ([11]; Sprague-Dawley, rat brain homogenate, read-out: %Boundbrain (converted)): 0.0146
fraction unbound at 6 h, 5 μM ([12]; brain homogenate, read-out: fu,brain% / %Unboundbrain): 0.0143
recovery at 6 h, 5 μM ([12]; mouse brain homogenate): 109%
remaining at 6 h, 5 μM ([12]; mouse brain homogenate): 108%
fraction unbound at 6 h, 5 μM ([12]; mouse brain homogenate, read-out: %Unboundbrain (converted)): 0.0143
